Measured values: US10357493B2, “Metalloenzyme inhibitor compounds” (Selenity Therapeutics (Bermuda), Ltd., priority 2017, dated 2019)
pIC50: −log10 of the molar value. Blank lines part the entries; values can stand above or below the compound they belong to.

Key:
HDAC1 = HDAC1 (Homo sapiens (Human), UniProt Q13547); test: HDAC1 enzymatic assay; type: biochemical; conditions: read-out: Human HDAC1 IC50
Description: (§1) All enzymatic reactions were conducted in duplicate at room temperature for 17 hours in a 50 μl mixture containing HDAC assay buffer (50 mM Tris-HCl, pH 7.4, 137 mM NaCl, 2.7 mM KCl, 0.05% Tween 20, 5 μg BSA), an HDAC substrate, an HDAC enzyme, and a test compound. Compound dilution was prepared ten-fold higher than the final concentration of the compounds with 10% DMSO in HDAC assay buffer and 5 μl of the dilution was added to a 50 μl reaction so that the final concentration of DMSO is 1% in all of reactions. After enzymatic reactions, 50 μl of HDAC Developer was added to each well and the plate was incubated at room temperature for an additional 20 minutes. Fluorescence intensity was measured at an excitation of 360 nm and an emission of 460 nm using a Tecan Infinite M1000 or Biotek Synergy microplate reader.
(§2) The fluorescent intensity data were analyzed using the computer software, Graphpad Prism. In the absence of the compound, the fluorescent intensity (Ft) in each data set was defined as 100% activity. In the absence of HDAC, the fluorescent intensity (Fb) in each data set was defined as 0% activity. The percent activity in the presence of each compound was calculated according to the following equation: % activity=(F−Fb)/(Ft−Fb), where F=the fluorescent intensity in the presence of the compound.
(§3) The values of % activity versus a series of compound concentrations were then plotted using non-linear regression analysis of Sigmoidal dose-response curve generated with the equation Y=B+(T−B)/1+10((Log EC50−X)×Hill Slope), where Y=percent activity, B=minimum percent activity, T=maximum percent activity, X=logarithm of compound and Hill Slope=slope factor or Hill coefficient. The IC50 value was determined by the concentration causing a half-maximal percent activity.
(§4) HDAC1 enzymatic assays contained 0.5 ng HDAC1 and 10 uM of HDAC substrate. HDAC2 enzymatic assays contained 0.5 ng HDAC2 and 10 uM of HDAC substrate. HDAC3 enzymatic assays contained 0.4 ng HDAC3/NCOR2 and 10 uM of HDAC substrate. HDAC4 enzymatic assays contained 0.02 ng HDAC4 and 2 uM of HDAC substrate. HDAC5 enzymatic assays contained 0.5 ng HDAC5 and 2 uM of HDAC substrate. HDAC6 enzymatic assays contained 2 ng HDAC6 and 10 uM of HDAC substrate. HDAC7 enzymatic assays contained 0.05 ng HDAC7 and 2 uM of HDAC substrate. HDAC8 enzymatic assays contained 5 ng HDAC8 and 2 uM of HDAC substrate. HDAC9 enzymatic assays contained 1 ng HDAC9 and 2 uM of HDAC substrate. HDAC10 enzymatic assays contained 75 ng HDAC10 and 10 uM of HDAC substrate. HDAC11 enzymatic assays contained 5 ng HDAC11 and 2 uM of HDAC substrate.

HDAC6 = HDAC6 (Homo sapiens (Human), UniProt Q9UBN7); test: HDAC6 enzymatic assay; type: biochemical; conditions: read-out: Human HDAC6 IC50
Chain of HDAC6 (Q9UBN7 whole entry): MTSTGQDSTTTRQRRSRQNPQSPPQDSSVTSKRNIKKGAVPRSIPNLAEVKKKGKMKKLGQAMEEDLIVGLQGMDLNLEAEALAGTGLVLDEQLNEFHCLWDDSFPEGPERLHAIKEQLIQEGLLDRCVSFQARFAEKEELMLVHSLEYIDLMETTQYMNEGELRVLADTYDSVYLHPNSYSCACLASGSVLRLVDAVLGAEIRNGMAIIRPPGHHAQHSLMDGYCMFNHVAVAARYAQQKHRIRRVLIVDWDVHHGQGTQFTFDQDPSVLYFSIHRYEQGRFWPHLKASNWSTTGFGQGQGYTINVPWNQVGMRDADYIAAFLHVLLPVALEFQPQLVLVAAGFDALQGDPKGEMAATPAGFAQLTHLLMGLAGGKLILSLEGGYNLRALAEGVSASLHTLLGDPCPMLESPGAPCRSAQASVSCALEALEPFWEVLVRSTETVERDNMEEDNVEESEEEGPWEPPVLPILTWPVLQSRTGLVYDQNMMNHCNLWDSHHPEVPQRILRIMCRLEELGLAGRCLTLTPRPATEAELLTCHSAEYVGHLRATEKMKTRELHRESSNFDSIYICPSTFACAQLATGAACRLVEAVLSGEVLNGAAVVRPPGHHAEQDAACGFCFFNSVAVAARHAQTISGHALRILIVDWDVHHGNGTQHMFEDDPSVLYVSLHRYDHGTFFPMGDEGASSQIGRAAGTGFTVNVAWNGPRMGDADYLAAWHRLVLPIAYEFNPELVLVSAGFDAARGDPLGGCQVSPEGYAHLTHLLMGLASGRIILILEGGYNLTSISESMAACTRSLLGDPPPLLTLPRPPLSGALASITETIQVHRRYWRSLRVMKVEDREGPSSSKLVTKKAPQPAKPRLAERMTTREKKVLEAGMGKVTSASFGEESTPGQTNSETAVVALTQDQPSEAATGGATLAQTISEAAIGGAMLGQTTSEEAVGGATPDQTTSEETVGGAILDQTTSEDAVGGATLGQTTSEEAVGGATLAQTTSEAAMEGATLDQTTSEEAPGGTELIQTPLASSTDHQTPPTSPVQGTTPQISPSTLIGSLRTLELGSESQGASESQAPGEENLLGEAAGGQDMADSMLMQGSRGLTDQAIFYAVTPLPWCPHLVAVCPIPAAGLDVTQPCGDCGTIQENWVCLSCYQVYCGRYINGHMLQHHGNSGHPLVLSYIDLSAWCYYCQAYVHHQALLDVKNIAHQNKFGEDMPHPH
Description: as §1, §2, §3, §4

Chain of HDAC1 (Q13547 whole entry): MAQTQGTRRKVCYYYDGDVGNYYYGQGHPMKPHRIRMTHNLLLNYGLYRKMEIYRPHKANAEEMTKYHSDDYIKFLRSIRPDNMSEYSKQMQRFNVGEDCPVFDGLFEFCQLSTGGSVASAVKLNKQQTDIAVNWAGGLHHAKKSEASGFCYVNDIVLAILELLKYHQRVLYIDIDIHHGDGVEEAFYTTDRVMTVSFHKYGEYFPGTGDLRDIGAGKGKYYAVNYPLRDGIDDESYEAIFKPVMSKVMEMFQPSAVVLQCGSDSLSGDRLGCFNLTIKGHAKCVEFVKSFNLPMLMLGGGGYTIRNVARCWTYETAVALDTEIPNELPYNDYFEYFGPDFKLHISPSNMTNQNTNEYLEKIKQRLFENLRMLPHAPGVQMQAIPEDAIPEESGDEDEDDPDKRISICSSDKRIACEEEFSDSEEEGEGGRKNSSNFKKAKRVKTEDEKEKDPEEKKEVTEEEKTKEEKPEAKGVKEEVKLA

Structure (SMILES): O=C1CCCN1CC(Nc1ncc(-c2nnc(C(F)F)o2)cn1)c1ccc(F)cc1 (single isomer, unassigned) [177(+), 1-(2-((5-(5-(difluoromethyl)-1,3,4-oxadiazol-2-yl)pyrimidin-2-yl)amino)-2-(4-fluorophenyl)ethyl)pyrrolidin-2-one]
- pIC50 (HDAC1): < 4.52
- pIC50 (HDAC6): 6.96

Structure (SMILES): CCS(=O)(=O)N(C)CC(Nc1ncc(-c2nnc(C(F)F)o2)cn1)c1ccc(F)cc1F (stereo not drawn) [140(+), N-(2-((5-(5-(difluoromethyl)-1,3,4-oxadiazol-2-yl)pyrimidin-2-yl)amino)-2-(2,4-difluorophenyl)ethyl)-N-methylethanesulfonamide]
- pIC50 (HDAC1): < 4.52
- pIC50 (HDAC6): 7.24

Structure (SMILES): CC(Nc1ncc(-c2nnc(C(F)F)o2)cn1)c1ccc(F)cc1 (single isomer, unassigned; (-)) [20(−), (−)-5-(5-(difluoromethyl)-1,3,4-oxadiazol-2-yl)-N-(1-(4-fluorophenyl)ethyl)pyrimidin-2-amine]
- pIC50 (HDAC1): < 4.52
- pIC50 (HDAC6): < 6.00

Structure (SMILES): CC(Nc1ncc(-c2nnc(C(F)F)o2)cn1)c1ccc(F)cc1 (single isomer, unassigned; (+)) [20(+), (+)-5-(5-(difluoromethyl)-1,3,4-oxadiazol-2-yl)-N-(1-(4-fluorophenyl)ethyl)pyrimidin-2-amine]
- pIC50 (HDAC1): < 4.52
- pIC50 (HDAC6): 7.68

Structure (SMILES): CC(=O)NCC(Nc1ncc(-c2nnc(C(F)F)o2)cn1)c1ccc(F)cc1 (single isomer, unassigned) [78(−), N-(2-((5-(5-(difluoromethyl)-1,3,4-oxadiazol-2-yl)pyrimidin-2-yl)amino)-2-(4-fluorophenyl)ethyl)acetamide]
- pIC50 (HDAC1): < 4.52
- pIC50 (HDAC6): 6.38

Structure (SMILES): CC(Nc1ncc(-c2nnc(C(F)F)o2)cn1)c1c(F)cccc1F (single isomer, unassigned; (-)) [100(−), (−)-5-(5-(difluoromethyl)-1,3,4-oxadiazol-2-yl)-N-(1-(2,6-difluorophenyl)ethyl)pyrimidin-2-amine]
- pIC50 (HDAC1): < 4.52
- pIC50 (HDAC6): < 6.00

Structure (SMILES): CN(CC(Nc1ncc(-c2nnc(C(F)F)o2)cn1)c1ccc(OC(F)F)cc1F)S(=O)(=O)C1CC1 (stereo not drawn) [151(+), N-(2-(4-(difluoromethoxy)-2-fluorophenyl)-2-((5-(5-(difluoromethyl)-1,3,4-oxadiazol-2-yl)pyrimidin-2-yl)amino)ethyl)-N-methylcyclopropanesulfonamide]
- pIC50 (HDAC1): < 4.52
- pIC50 (HDAC6): 7.07

Structure (SMILES): CS(=O)(=O)NCC(Nc1ncc(-c2nnc(C(F)F)o2)cn1)c1ccc(F)cc1 (single isomer, unassigned) [38(−), N-(2-((5-(5-(difluoromethyl)-1,3,4-oxadiazol-2-yl)pyrimidin-2-yl)amino)-2-(4-fluorophenyl)ethyl) methanesulfonamide]
- pIC50 (HDAC1): < 4.52
- pIC50 (HDAC6): 6.49

Structure (SMILES): CCC(Nc1ncc(-c2nnc(C(F)F)o2)cn1)c1ccc(F)cc1 (stereo not drawn) [Example 22, 5-(5-(difluoromethyl)-1,3,4-oxadiazol-2-yl)-N-(1-(4-fluorophenyl)propyl)pyrimidin-2-amine]
- pIC50 (HDAC1): < 4.52
- pIC50 (HDAC6): 7.15

Structure (SMILES): CC(Nc1ncc(-c2nnc(C(F)F)o2)cn1)c1ccccc1 (stereo not drawn) [Example 6, 5-(5-(difluoromethyl)-1,3,4-oxadiazol-2-yl)-N-(1-phenylethyl)pyrimidin-2-amine]
- pIC50 (HDAC1): < 4.52
- pIC50 (HDAC6): 7.24

Second part, the compound after the results:

- pIC50 (HDAC1): < 4.52
- pIC50 (HDAC6): 7.36
Structure (SMILES): COc1ccc(C2(Nc3ncc(-c4nnc(C(F)F)o4)cn3)CC2)cc1 [Example 44, 5-(5-(difluoromethyl)-1,3,4-oxadiazol-2-yl)-N-(1-(4-methoxyphenyl)cyclopropyl)pyrimidin-2-amine]

- pIC50 (HDAC1): < 4.52
- pIC50 (HDAC6): 7.04
Structure (SMILES): Fc1cccc(F)c1C(CC(F)(F)F)Nc1ncc(-c2nnc(C(F)F)o2)cn1 (stereo not drawn) [Example 102, 5-(5-(difluoromethyl)-1,3,4-oxadiazol-2-yl)-N-(1-(2,6-difluorophenyl)-3,3,3-trifluoropropyl)pyrimidin-2-amine]

- pIC50 (HDAC1): < 4.52
- pIC50 (HDAC6): 7.00
Structure (SMILES): FC(F)c1nnc(-c2cnc(NC3(c4ccc(OCC(F)(F)F)cc4)CC3)nc2)o1 [Example 68, 5-(5-(difluoromethyl)-1,3,4-oxadiazol-2-yl)-N-(1-(4-(2,2,2-trifluoroethoxy)phenyl)cyclopropyl) pyrimidin-2-amine]

- pIC50 (HDAC1): < 4.52
- pIC50 (HDAC6): 7.80
Structure (SMILES): COc1cc(F)c(C2(Nc3ncc(-c4nnc(C(F)F)o4)cn3)CC2)c(F)c1 [Example 106, N-(1-(2,6-difluoro-4-methoxyphenyl)cyclopropyl)-5-(5-(difluoromethyl)-1,3,4-oxadiazol-2-yl)pyrimidin-2-amine]

- pIC50 (HDAC1): < 4.52
- pIC50 (HDAC6): 7.00
Structure (SMILES): Fc1cc(OC(F)(F)F)ccc1C1(Nc2ncc(-c3nnc(C(F)F)o3)cn2)CC1 [Example 70, 5-(5-(difluoromethyl)-1,3,4-oxadiazol-2-yl)-N-(1-(2-fluoro-4-(trifluoromethoxy)phenyl)cyclopropyl)pyrimidin-2-amine]

- pIC50 (HDAC1): < 4.52
- pIC50 (HDAC6): 7.64
Structure (SMILES): COc1ccccc1C1(Nc2ncc(-c3nnc(C(F)F)o3)cn2)CC1 [Example 46, 5-(5-(difluoromethyl)-1,3,4-oxadiazol-2-yl)-N-(1-(2-methoxyphenyl)cyclopropyl)pyrimidin-2-amine]

- pIC50 (HDAC1): < 4.52
- pIC50 (HDAC6): 7.54
Structure (SMILES): Fc1ccc(C2(Nc3ncc(-c4nnc(C(F)F)o4)cn3)CCC2)cc1 [Example 88]

- pIC50 (HDAC1): < 4.52
- pIC50 (HDAC6): 7.00
Structure (SMILES): FC(F)c1nnc(-c2cnc(NC3(c4cc(OCC(F)(F)F)ccc4Cl)CC3)nc2)o1 [Example 89, N-(1-(2-chloro-5-(2,2,2-trifluoroethoxy)phenyl)cyclopropyl)-5-(5-(difluoromethyl)-1,3,4-oxadiazol-2-yl)pyrimidin-2-amine]

- pIC50 (HDAC1): < 4.52
- pIC50 (HDAC6): 6.60
Structure (SMILES): COc1ccc(C2(Nc3ncc(-c4nnc(C(F)(F)F)o4)cn3)CC2)cc1 [Example 42, N-(1-(4-methoxyphenyl)cyclopropyl)-5-(5-(trifluoromethyl)-1,3,4-oxadiazol-2-yl)pyrimidin-2-amine]

- pIC50 (HDAC1): < 4.52
- pIC50 (HDAC6): 7.19
Structure (SMILES): FC(F)c1nnc(-c2cnc(NC3(c4ccc(C(F)(F)F)cc4)CC3)nc2)o1 [Example 45, 5-(5-(difluoromethyl)-1,3,4-oxadiazol-2-yl)-N-(1-(4-(trifluoromethyl)phenyl)cyclopropyl) pyrimidin-2-amine]

- pIC50 (HDAC1): < 4.52
- pIC50 (HDAC6): 7.54
Structure (SMILES): Fc1cc(OC(F)F)ccc1C1(Nc2ncc(-c3nnc(C(F)F)o3)cn2)CC1 [Example 33, N-(1-(4-(difluoromethoxy)-2-fluorophenyl)cyclopropyl)-5-(5-(difluoromethyl)-1,3,4-oxadiazol-2-yl)pyrimidin-2-amine]

- pIC50 (HDAC1): < 4.52
- pIC50 (HDAC6): 7.08
Structure (SMILES): CS(=O)(=O)Nc1cccc(CC(Nc2ncc(-c3nnc(C(F)F)o3)cn2)c2ccc(F)cc2)c1 (stereo not drawn) [Example 132, N-(3-(2-((5-(5-(difluoromethyl)-1,3,4-oxadiazol-2-yl)pyrimidin-2-yl)amino)-2-(4-fluorophenyl)ethyl)phenyl)methanesulfonamide]

- pIC50 (HDAC1): < 4.52
- pIC50 (HDAC6): 7.46
Structure (SMILES): FC(F)c1nnc(-c2cnc(NC3(c4ccnc(Br)c4)CC3)nc2)o1 [Example 82, N-(1-(2-bromopyridin-4-yl)cyclopropyl)-5-(5-(difluoromethyl)-1,3,4-oxadiazol-2-yl)pyrimidin-2-amine]

- pIC50 (HDAC1): < 4.52
- pIC50 (HDAC6): 7.30
Structure (SMILES): O=S(=O)(NCC(Nc1ncc(-c2nnc(C(F)F)o2)cn1)c1ccc(F)cc1)c1ccccc1 (stereo not drawn) [Example 39, N-(2-((5-(5-(difluoromethyl)-1,3,4-oxadiazol-2-yl)pyrimidin-2-yl)amino)-2-(4-fluorophenyl)ethyl)benzenesulfonamide]
